Source: patent US6307014A (priority 1998, dated 2001)

Columns and labels:
[1] = tested on: cholinergic synapse of the buccal ganglion; type: cell-based, Aplysia californica
[2] = tested on: presynaptic Ca2+ current; type: cell-based, Aplysia californica
[3] = tested on: postsynaptic acetylcholine (ACh) receptors; type: cell-based, Aplysia californica
[4] = tested on: young mice; conditions: mouse, in vivo

Substance: Gla Cys Cys Gla Asp Gly BrW Cys Cys Thr Ala Ala OHP [P11.1]
- amplitude of the postsynaptic response (IPSC) evoked by a presynaptic action potential, % of the initial value [1]: 40%
- reduction in the number of released quanta [1]: 60%
- presynaptic Ca2+ current, % of the control value [2]: 70%
- distribution of mean amplitudes of miniature postsynaptic currents with respect to mean amplitude of the LDIPSC [3]: identical to control values
- effect on postsynaptic acetylcholine (ACh) receptors [3]: no effect
- dampening of the action potential [4]: about 50%
